Assay results as given in ChEMBL document CHEMBL3507680, “University of Dundee, Gates Library screen for HepG2 cell viability”.

Experiment: Human HepG2 cell viability assay in 384 well format
Format: toxicity, cell-based
Set-up: dose 125 nL, time 70.5 hour; concentration not given beside the values
Conditions: HepG2 cells, read-out: Inhibition

SMILES	cytotoxicity at 70.5 h [%]
CCc1nc(CNCC2CCCN2c2cccnn2)no1 (centres undefined)	-4.56
COc1ccnc(N2CCCN(C(=O)Cc3ccc(C)s3)CC2)n1	22.9
Cc1ccc(CN(CC(=O)N2CCOC(C)C2)C2CC2)cc1 (centres undefined)	-6.74
Cc1ccsc1C(=O)N1CCN(Cc2cscn2)CC1	-3.03
CC1CN(C(=O)CN(Cc2ccco2)Cc2cccs2)CCO1 (centres undefined)	3
CC1CN(C(=O)CN(Cc2ccccc2)C2CC2)CCO1 (centres undefined)	-9.67
Cc1cc(CN2Cc3ccccc3CC2c2nnc(C)o2)no1 (centres undefined)	1.64
CS(=O)(=O)NC1CCCN(C(=O)Nc2cccnc2)C1 (centres undefined)	25.1
CS(=O)(=O)NC1CCCN(C(=O)c2cccnc2)C1 (centres undefined)	-8.57
CC(C)C(CNC(=O)Nc1cn[nH]c1)N1CCOCC1 (centres undefined)	-5.6
CCc1nnc(C2Cc3ccccc3CN2Cc2nc(C)no2)o1 (centres undefined)	-3.78
CCn1cnnc1CNC(=O)N1CCCCCC1	-2.16
CN(C(=O)c1ccc(Cl)cc1)C1CCN(c2ccccn2)CC1	2.33
Cc1nc(C)n(CC2CCCN(CCC(=O)N3CCOCC3)C2)n1 (centres undefined)	-4.61
CC1CN(C(=O)CN(Cc2ccccc2Cl)C2CCCC2)CCO1 (centres undefined)	6.53
CC(=O)N(Cc1noc(C)n1)C1CCN(Cc2cnc(C)s2)C1 (centres undefined)	-4.39
Cc1ccc(C(=O)N2CCCN(Cc3cscn3)CC2)o1	-6.95
CC(C)c1nn(C)c(N(C)C)c1CNCC(O)c1cccc(F)c1 (centres undefined)	-10
Cc1nn(C)c(N2CCOCC2)c1CNCc1ccoc1C	-11.3
CC(C)COC(C)C(=O)NCc1ccc(F)cc1 (centres undefined)	-19.1
O=C(NCCC(=O)N1CCCc2ccccc21)c1c(F)cccc1F	-12.4
CC(C)COC(C)C(=O)NCc1ccccc1 (centres undefined)	-5.1
CCc1nc(CN2CCCC(NCc3nnc(C4CC4)n3C)C2)no1 (centres undefined)	-8.85
CN(C)c1cc(CNC(=O)c2cnccn2)ccn1	-8.01

SMILES	cytotoxicity at 70.5 h [%]
CC(OCc1ccccc1)C(=O)NCc1ccc(N(C)C)cc1 (centres undefined)	-12.6
CN(C)c1cc(CNC(=O)c2cccnc2O)ccn1	-12.1
Cc1ccc(C(=O)N2CCCC(c3nncn3C)C2)c(C)c1 (centres undefined)	-4.5
Cc1nn(C)c(N2CCOCC2)c1CNCc1ccc2c(c1)OCO2	-5.61
O=C(CCc1nccs1)N1CCN(c2ccc(Cl)cn2)CC1	-5.57
O=C(Cc1ccccn1)N1CCN(C(=O)CC2CCCCC2)CC1	-2.98
Cc1nc(CN2CCCN(C(=O)c3c(C)oc(C)c3C)CC2)cs1	-10
Cc1nn(C)c(N2CCOCC2)c1CNCc1ccc(C(C)O)cc1 (centres undefined)	-11.7
c1cnnc(N2CCCC(NCc3ccncc3)C2)c1 (centres undefined)	-4.07
COc1cccc(COCC(=O)N2CCCC(n3cccn3)C2)c1 (centres undefined)	-4.65
Cc1ccc(N2CCCC(NCc3ccc(-n4ccnc4)cc3)C2)nn1 (centres undefined)	17.4
FC(F)(F)c1ccc(CN2CCN(Cc3cscn3)CC2)cc1	-12.5
COc1ccc(OC)c(C(=O)N(C)Cc2ncc(C)c(OC)c2C)c1	-9
Cc1ccn2ncc(C(=O)N3CCCC(n4nc(C)nc4C)C3)c2n1 (centres undefined)	-5.04
COc1ccc(F)cc1C(=O)N1CCCC(n2nc(C)nc2C)C1 (centres undefined)	-9.24
CCc1nc2n(n1)CC(NCc1nc(-c3cccnc3)no1)CC2 (centres undefined)	-10.5
O=C(CCNC(=O)c1ccoc1)Nc1cccc(F)c1	-6.83
O=C(CCNC(=O)c1ccoc1)Nc1cc(F)ccc1F	-5.4
O=C(CCNC(=O)c1ccoc1)Nc1cc(F)cc(F)c1	-10.4
Cn1cnnc1C1CCCN(C(=O)c2ccc3c(c2)OCCO3)C1 (centres undefined)	-4.4
COCCOc1ccc(NC(=O)N2CCCC2c2cccs2)cn1 (centres undefined)	-4.81
Cc1cccc(OCCCNC(=O)NC(C)c2nncn2C)c1 (centres undefined)	-6.42
Cc1nc(NC(=O)CN2CCOC(Cn3cccn3)C2)sc1C (centres undefined)	-7.06
O=C(COc1cccnc1)N1CCCC(n2cccn2)C1 (centres undefined)	-2.58

SMILES	cytotoxicity at 70.5 h [%]
Cc1nc(C)n(C2CCCN(C(=O)c3nc(C)n4ccccc34)C2)n1 (centres undefined)	-9.2
Cc1nc(C)n(C2CCCN(C(=O)c3cccc4cn[nH]c34)C2)n1 (centres undefined)	-13.2
CCn1c(C)nnc1CN(C)C1CCN(CCCOC)C1 (centres undefined)	3.25
COc1ccnc(N2CCN(C(=O)Cc3ccc(C)s3)CC2)n1	-5.58
CN(C)c1cc(CNC(=O)c2cn(-c3ccc(F)cc3)nn2)ccn1	-8.15
CN(C(=O)c1ccccc1Cl)C1CCN(c2ccccn2)CC1	-3.26
CN(C(=O)c1cccc2[nH]ncc12)C1CCN(c2ccccn2)CC1	31.6
COc1ccnc(N2CCN(C(=O)NCc3ccc(C)s3)CC2)n1	1.2
Cc1ccsc1CNC(=O)Cc1c(C)nc2c(c1C)c(=O)[nH]n2C	-12.2
Cc1cn2c(n1)CCC(NC(=O)c1nc(C)ncc1Cl)C2 (centres undefined)	-8.31
O=C(Cn1cccn1)NCC1(c2ccccc2)CC1	24.2
CC1CN(C(=O)CN(Cc2ccco2)C2CC2)CCO1 (centres undefined)	-10.6
CC(C)COC(C)C(=O)NCc1cc(F)cc(F)c1 (centres undefined)	-13.3
Cc1noc(C)c1CNCC1CCCN1c1cccnn1 (centres undefined)	22.6
O=C(CNCCn1cccn1)NCC1(c2ccccc2)CC1	-4.79
Cc1cccc(C(=O)NCc2ccnc(N(C)C)c2)n1	0.0987
Cc1nc(C)n(CC2CCCN(CCNC(=O)OC(C)(C)C)C2)n1 (centres undefined)	-0.801
CCc1ccc(C(=O)N2CCCC(c3noc(CC)n3)C2)o1 (centres undefined)	-2.81
CCc1nc(CN2CCCC(NCc3cc(C)no3)C2)no1 (centres undefined)	-8.45
Cc1noc(CN2Cc3ccccc3CC2c2nnc(C)o2)n1 (centres undefined)	4.3
CC1CCN(C(=O)CN(Cc2ccco2)C2CC2)CC1	-9.01
CCc1n[nH]c(C2CN(Cc3nnc(C4CC4)n3C)CCO2)n1 (centres undefined)	27.9
Cc1nc2ccccc2nc1CN1CCCC1Cn1cncn1 (centres undefined)	19.7
CCn1cc(CN2CCCN(C(=O)c3ccn(C)c(=O)c3)CC2)cn1	20.6

SMILES	cytotoxicity at 70.5 h [%]
Cc1nc(CN2CCCN(CC(=O)Nc3cccnc3)CC2)no1	7.78
Cc1nc(C)n(C2CCCN(C(=O)c3ccccc3C)C2)n1 (centres undefined)	-7.9
CNC(=O)c1ccc(CN2CCC(N(C)Cc3noc(C)n3)C2)cc1 (centres undefined)	-0.459
O=C(COCc1ccccc1Cl)N1CCCC(n2cccn2)C1 (centres undefined)	3.17
Cn1ncc2c1CCCC2NCc1ccc(Cl)s1 (centres undefined)	4.18
Cc1ccc(OCCCNC(=O)NC(C)c2nncn2C)cc1 (centres undefined)	-3.66
CNc1cc2c(nn1)CCN(C(=O)c1ccoc1)C2	-6.62
O=C(c1ccc(Cl)o1)N1CCCN(Cc2cscn2)CC1	-5.01
Cc1cc(C)n(C2CCCN(C(=O)c3ccc(NC4CC4)nc3)C2)n1 (centres undefined)	-0.521
CC(C)c1nnc2n1CCN(C(=O)c1ccc(OCC(N)=O)cc1)C2	-4.33
OCC1CCCN1c1cc(N2CCN(c3ccccn3)CC2)ncn1 (centres undefined)	-9.58
Cc1nc(CN(C)C2CCN(Cc3ccc4c(c3)OCCO4)C2)no1 (centres undefined)	-2.2
Cn1c(CN2CCOC(c3nc(C(C)(C)C)n[nH]3)C2)nnc1C1CC1 (centres undefined)	26.5
Cc1cc(NC(=O)CN2CCOC(Cn3cccn3)C2)n(C)n1 (centres undefined)	8.66
c1cnnc(N2CCCC(NCc3ccc(-n4cccn4)cc3)C2)c1 (centres undefined)	-4.64
COCCOc1ccc(NC(=O)N2CCCC2c2cc(C)no2)cn1 (centres undefined)	-7.2
Cc1nc(CN2CCCC(N(C)Cc3nnsc3Cl)C2)no1 (centres undefined)	-1.91
OCC1CCCN1c1cc(N2CCc3ccccc3C2)ncn1 (centres undefined)	31.1
COCCOc1ccc(NC(=O)N2CCCC2c2ccncc2)cn1 (centres undefined)	-11.8
Cc1cnn(CC2CCCN2Cc2nc3ccccc3nc2C)c1 (centres undefined)	-7.74
Cc1cc(C)n(C2CCCN(C(=O)c3cc(C4CC4)on3)C2)n1 (centres undefined)	0.784
CC(C)c1nc2n(n1)CC(NCc1ncc(-c3ccccc3)o1)CC2 (centres undefined)	-6.07
c1ccc(-c2cnc(CNCC3CCCN3c3cccnn3)o2)cc1 (centres undefined)	-5.15
Cc1nc2ccccc2nc1CN(C)CC1CCCN1c1cccnn1 (centres undefined)	3.52

SMILES	cytotoxicity at 70.5 h [%]
Cc1noc(C)c1CN(C)CC1CCCN1c1cccnn1 (centres undefined)	-7.19
Cn1cnnc1C1CCCN(C(=O)NCCNc2ccccn2)C1 (centres undefined)	-15.9
COc1ccc(C)cc1CSCCn1nc2ccccn2c1=O	-11.5
CC(=O)Nc1nc(C(=O)Nc2ccc(F)cc2)cs1	-4.84
CCN(Cc1ccc2c(c1)OCCO2)C(=O)NCc1cc[nH]n1	-20.9
CN(Cc1ccsc1)C(=O)CS(=O)(=O)Cc1ccc(Cl)c(Cl)c1	-9.28
CC(O)CN(CC(=O)NC(=O)NCC(F)(F)F)c1ccccc1 (centres undefined)	-11.1
NS(=O)(=O)Cc1ccc(CNC(=O)NCC2CCOC2)cc1 (centres undefined)	-15.3
COc1ccccc1CC1CCCN(CC(N)=O)C1 (centres undefined)	-2.63
O=c1n(CCSCc2ccccc2F)nc2ccccn12	-11.3
Cc1oc(-c2ccco2)nc1CC(=O)N1CCN(CC(C)(C)O)CC1	-17.8
O=C(Nc1cc(F)ccc1OCC1CCCO1)c1ccc(O)nc1 (centres undefined)	-6.69
Cc1nnc(N2CCC(CS(N)(=O)=O)CC2)c(C#N)c1C	-9.82
CCn1nc(C)cc1C(=O)Nc1cc(F)ccc1OCC1CCCO1 (centres undefined)	-16.3
CN(Cc1nc(N)c2ccccc2n1)CC1CCCN1c1cccnn1 (centres undefined)	-16.6
Cn1ccc(C(=O)N2CCCC(n3cncn3)C2)cc1=O (centres undefined)	-10.3
O=C(c1cc[nH]n1)N1CCC(Nc2cccnn2)CC1	14.8
CC(C(=O)NCc1ccc(-n2cncn2)nc1)n1ccnc1 (centres undefined)	-18
CCc1nnc(CN2CCN(C(=O)c3cc4ccccc4[nH]3)CC2)o1	-3.19
Cc1oc(-c2ccco2)nc1CC(=O)N1CCC(C(O)C(F)(F)F)CC1 (centres undefined)	-18.3
c1cnc(N2CCCC(NCc3ccc(-n4ccnc4)cc3)C2)nc1 (centres undefined)	-4.91
CC(C)c1nn(C)c(Cl)c1CNCC(O)c1cccc(F)c1 (centres undefined)	-10.3
Cn1ncc2c1CCCC2NCc1cc(Br)cs1 (centres undefined)	-0.587
